Measured values: US8053553B2, “Targeting host proteinases as a therapeutic strategy against viral and bacterial pathogens” (Socpra Sciences Sante Et Humaines, priority 2007, dated 2011)
Like-named read-outs stand apart in the source and are kept apart here. Non-standard residues stand in square brackets, D forms with d. Residues, ends and D or L forms follow the SMILES beside them. Sar = CNCC(=O)O

What was measured:
[1] = molecular target: PC4; test: Ki, μM | PC4
[2] = molecular target: PC5/6; test: Ki, μM | PC5/6
[3] = molecular target: PC7; test: Ki, μM | PC7
[4] = molecular target: PACE4; test: Ki, μM | PACE4
[5] = system: B. anthracis Sterne spores; parameters: species or system A/J mice; settings: mouse, in vivo
[6] = molecular target: T1, furin (Homo sapiens, UniProt P09958); test: biochemical; settings: furin, Pyr-RTKR-AMC substrate, read-out: Ki
T1 construct: made in house; host or cells: Drosophila S2 cells (Invitrogen expression system)
T1 sequence (P09958 108-794 limits assumed): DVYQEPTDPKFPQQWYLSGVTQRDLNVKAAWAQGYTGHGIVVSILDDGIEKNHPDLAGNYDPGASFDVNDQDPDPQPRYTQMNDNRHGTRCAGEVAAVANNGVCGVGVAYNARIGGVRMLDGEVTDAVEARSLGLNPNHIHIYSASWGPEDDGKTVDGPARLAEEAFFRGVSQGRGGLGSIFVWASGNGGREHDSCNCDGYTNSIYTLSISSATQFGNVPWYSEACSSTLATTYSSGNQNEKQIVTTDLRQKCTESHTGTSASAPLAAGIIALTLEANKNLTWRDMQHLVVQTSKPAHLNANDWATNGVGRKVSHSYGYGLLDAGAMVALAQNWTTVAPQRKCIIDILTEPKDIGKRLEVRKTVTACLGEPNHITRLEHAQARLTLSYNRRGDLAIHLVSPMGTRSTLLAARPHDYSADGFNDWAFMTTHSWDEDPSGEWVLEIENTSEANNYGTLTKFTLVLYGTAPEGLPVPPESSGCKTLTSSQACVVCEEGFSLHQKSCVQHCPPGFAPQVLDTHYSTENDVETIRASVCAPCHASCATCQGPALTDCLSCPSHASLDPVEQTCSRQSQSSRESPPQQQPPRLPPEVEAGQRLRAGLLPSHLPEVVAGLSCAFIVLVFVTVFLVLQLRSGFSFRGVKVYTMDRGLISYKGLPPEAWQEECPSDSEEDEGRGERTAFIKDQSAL

[7] = optimization of the inhibitory peptides (Table 3)
[8] = alanine scanning mutagenesis of the H5 furin cleavage sequence (Table 2)

Molecule: TPQRARRRKKRF
- Ki [1]: 0.772 µM
- Ki [2]: 0.806 µM
- Ki [3]: 1.13 µM
- Ki [4]: 0.602 µM

Molecule: O=C(O)c1cn(C2CC2)c2cc(N3CCNCC3)c(F)cc2c1=O [Cipro, reference compound]
- infected mice protected from disease [5]: 40%
- protection of A/J mice from anthrax [5]: protect A/J mice from anthrax

Molecule: TPRARRRKKRI
- Ki [1]: 0.562 µM
- Ki [2]: 0.492 µM
- Ki [3]: 0.135 µM
- Ki [4]: 0.026 µM

Molecule: TPQRARRRKKRY
- Ki [1]: 0.624 µM
- Ki [2]: 0.649 µM
- Ki [3]: 1.22 µM
- Ki [4]: 1.02 µM

Molecule: TPQRARRRKKRT
- Ki [1]: 0.515 µM
- Ki [2]: 0.188 µM
- Ki [3]: 0.206 µM

Molecule: TPQRARRRKKRW
- Ki [1]: 0.952 µM
- Ki [2]: 0.433 µM
- Ki [3]: 0.172 µM
- Ki [4]: 0.192 µM

Molecule: C[C@H](NC(=O)[C@H](CCCNC(=N)N)NC(=O)[C@@H]1CCCN1C(=O)[C@@H](N)[C@@H](C)O)C(=O)N[C@@H](CCCNC(=N)N)C(=O)N[C@@H](CCCNC(=N)N)C(=O)N[C@@H](CCCNC(=N)N)C(=O)N[C@@H](CCCCN)C(=O)N[C@@H](CCCCN)C(=O)N[C@@H](CCCNC(=N)N)C(=O)N[C@H](C(N)=O)[C@@H](C)O (H-TPRARRRKKRT-NH2)
- Ki [1]: 0.441 µM
- Ki [2]: 0.232 µM
- Ki [3]: 0.152 µM
- Ki [4]: 0.162 µM

Molecule: C[C@H](NC(=O)[C@H](CCCNC(=N)N)NC(=O)[C@H](CCC(N)=O)NC(=O)[C@@H]1CCCN1C(=O)[C@@H](N)[C@@H](C)O)C(=O)N[C@@H](CCCNC(=N)N)C(=O)N[C@@H](CCCNC(=N)N)C(=O)N[C@@H](CCCNC(=N)N)C(=O)N[C@@H](CCCCN)C(=O)N[C@@H](CCCCN)C(=O)N[C@@H](CCCNC(=N)N)C(=O)N[C@H](C(N)=O)[C@@H](C)O (H-TPQRARRRKKRT-NH2)
- Ki [6, 7]: 33 nM

Molecule: C[C@H](NC(=O)[C@H](CCCNC(=N)N)NC(=O)[C@H](CCC(N)=O)NC(=O)[C@@H]1CCCN1C(=O)[C@@H](N)[C@@H](C)O)C(=O)N[C@@H](CCCNC(=N)N)C(=O)N[C@@H](CCCNC(=N)N)C(=O)N[C@@H](CCCNC(=N)N)C(=O)N[C@@H](CCCCN)C(=O)N[C@@H](CCCCN)C(=O)N[C@@H](CCCNC(=N)N)C(=O)N[C@H](CCCCN)C(N)=O (H-TPQRARRRKKR[dK]-NH2)
- Ki [6, 7]: > 100 nM

Molecule: C[C@H](NC(=O)[C@H](C)NC(=O)[C@H](CCCNC(=N)N)NC(=O)[C@@H]1CCCN1C(=O)[C@@H](N)[C@@H](C)O)C(=O)N[C@@H](CCCNC(=N)N)C(=O)N[C@@H](CCCNC(=N)N)C(=O)N[C@@H](CCCCN)C(=O)N[C@@H](CCCCN)C(=O)N[C@@H](CCCNC(=N)N)C(N)=O (H-TPRAARRKKR-NH2)
- Ki [6, 8]: > 100 nM

Molecule: C[C@H](N)C(=O)N1CCC[C@H]1C(=O)N[C@@H](CCCNC(=N)N)C(=O)N[C@@H](CCC(=O)O)C(=O)N[C@@H](CCCNC(=N)N)C(=O)N[C@@H](CCCNC(=N)N)C(=O)N[C@@H](CCCNC(=N)N)C(=O)N[C@@H](CCCCN)C(=O)N[C@@H](CCCCN)C(=O)N[C@@H](CCCNC(=N)N)C(=O)NCC(N)=O (H-APRERRRKKRG-NH2)
- Ki [6, 8]: > 100 nM

Molecule: CC[C@H](C)[C@H](NC(=O)[C@H](CCCNC(=N)N)NC(=O)[C@H](CCCCN)NC(=O)[C@H](CCCCN)NC(=O)[C@H](CCCNC(=N)N)NC(=O)[C@H](CCCNC(=N)N)NC(=O)[C@H](CCCNC(=N)N)NC(=O)[C@H](C)NC(=O)[C@H](CCCNC(=N)N)NC(=O)[C@H](CCC(N)=O)NC(=O)[C@@H]1CCCN1C(=O)[C@@H](N)[C@@H](C)O)C(N)=O (H-TPQRARRRKKRI-NH2)
- Ki [6, 7]: > 100 nM

Molecule: C[C@H](NC(=O)[C@H](C)NC(=O)[C@H](CCC(=O)O)NC(=O)[C@H](CCCNC(=N)N)NC(=O)[C@@H]1CCCN1C(=O)[C@@H](N)[C@@H](C)O)C(=O)N[C@@H](CCCNC(=N)N)C(=O)N[C@@H](CCCCN)C(=O)N[C@@H](CCCCN)C(=O)N[C@@H](CCCNC(=N)N)C(=O)NCC(N)=O (H-TPREAARKKRG-NH2)
- Ki [6, 8]: > 100 nM

Molecule: C[C@H](NC(=O)[C@H](CCCCN)NC(=O)[C@H](CCCNC(=N)N)NC(=O)[C@H](CCCNC(=N)N)NC(=O)[C@H](CCCNC(=N)N)NC(=O)[C@H](CCC(=O)O)NC(=O)[C@H](CCCNC(=N)N)NC(=O)[C@@H]1CCCN1C(=O)[C@@H](N)[C@@H](C)O)C(=O)N[C@@H](C)C(=O)N(C)CC(N)=O (H-TPRERRRKAA[Sar]-NH2)
- Ki [6, 8]: > 100 nM

Molecule: C[C@@H](O)[C@H](N)C(=O)N1CCC[C@H]1C(=O)N[C@@H](CCC(N)=O)C(=O)N[C@@H](CCCNC(=N)N)C(=O)N[C@@H](CCC(=O)O)C(=O)N[C@@H](CCCNC(=N)N)C(=O)N[C@@H](CCCNC(=N)N)C(=O)N[C@@H](CCCNC(=N)N)C(=O)N[C@@H](CCCCN)C(=O)N[C@@H](CCCCN)C(=O)N[C@@H](CCCNC(=N)N)C(=O)NCC(N)=O
- Ki [6, 7]: > 100 nM

Molecule: CC(C)[C@H](NC(=O)[C@H](CCCNC(=N)N)NC(=O)[C@H](CCCCN)NC(=O)[C@H](CCCCN)NC(=O)[C@H](CCCNC(=N)N)NC(=O)[C@H](CCCNC(=N)N)NC(=O)[C@H](C)NC(=O)[C@H](CCC(=O)O)NC(=O)[C@H](CCCNC(=N)N)NC(=O)[C@@H]1CCCN1C(=O)[C@@H](N)[C@@H](C)O)C(N)=O (H-TPREARRKKRV-NH2)
- Ki [6, 8]: > 100 nM

Molecule: C[C@H](NC(=O)[C@@H](N)[C@@H](C)O)C(=O)N[C@@H](CCCNC(=N)N)C(=O)N[C@@H](CCC(=O)O)C(=O)N[C@@H](CCCNC(=N)N)C(=O)N[C@@H](CCCNC(=N)N)C(=O)N[C@@H](CCCNC(=N)N)C(=O)N[C@@H](CCCCN)C(=O)N[C@@H](CCCCN)C(=O)N[C@@H](CCCNC(=N)N)C(=O)N[C@@H](CO)C(N)=O (H-TARERRRKKRS-NH2)
- Ki [6, 8]: > 100 nM

Molecule: CSCC[C@H](NC(=O)[C@H](CCCNC(=N)N)NC(=O)[C@H](CCC(N)=O)NC(=O)[C@@H]1CCCN1C(=O)[C@@H](N)[C@@H](C)O)C(=O)N[C@@H](CCCNC(=N)N)C(=O)N[C@@H](CCCNC(=N)N)C(=O)N[C@@H](CCCNC(=N)N)C(=O)N[C@@H](CCCCN)C(=O)N[C@@H](CCCCN)C(=O)N[C@@H](CCCNC(=N)N)C(=O)NCC(N)=O
- Ki [6, 7]: > 100 nM

Molecule: C[C@H](NC(=O)[C@H](CCCNC(=N)N)NC(=O)[C@H](CCCNC(=N)N)NC(=O)[C@H](CCC(=O)O)NC(=O)[C@H](CCCNC(=N)N)NC(=O)[C@@H]1CCCN1C(=O)[C@@H](N)[C@@H](C)O)C(=O)N[C@@H](CCCCN)C(=O)N[C@@H](CCCCN)C(=O)N[C@@H](CCCNC(=N)N)C(=O)N(C)CC(N)=O (H-TPRERRAKKR[Sar]-NH2)
- Ki [6, 8]: > 100 nM

Molecule: CC(C)[C@H](NC(=O)[C@H](CCCNC(=N)N)NC(=O)[C@H](C)NC(=O)[C@H](CCCCN)NC(=O)[C@H](CCCNC(=N)N)NC(=O)[C@H](CCCNC(=N)N)NC(=O)[C@H](CCCNC(=N)N)NC(=O)[C@H](CCC(=O)O)NC(=O)[C@H](CCCNC(=N)N)NC(=O)[C@@H]1CCCN1C(=O)[C@@H](N)[C@@H](C)O)C(N)=O (H-TPRERRRKARV-NH2)
- Ki [6, 8]: > 100 nM

Molecule: C[C@H](N)C(=O)N[C@@H](C)C(=O)N[C@@H](C)C(=O)N[C@@H](CCC(=O)O)C(=O)N[C@@H](CCCNC(=N)N)C(=O)N[C@@H](CCCNC(=N)N)C(=O)N[C@@H](CCCNC(=N)N)C(=O)N[C@@H](CCCCN)C(=O)N[C@@H](CCCCN)C(=O)N[C@@H](CCCNC(=N)N)C(=O)NCC(N)=O (H-AAAERRRKKRG-NH2)
- Ki [6, 8]: > 100 nM

Molecule: CC[C@H](NC(=O)[C@H](CCCNC(=N)N)NC(=O)[C@H](CCC(N)=O)NC(=O)[C@@H]1CCCN1C(=O)[C@@H](N)[C@@H](C)O)C(=O)N[C@@H](CCCNC(=N)N)C(=O)N[C@@H](CCCNC(=N)N)C(=O)N[C@@H](CCCNC(=N)N)C(=O)N[C@@H](CCCCN)C(=O)N[C@@H](CCCCN)C(=O)N[C@@H](CCCNC(=N)N)C(=O)NCC(N)=O [TPQR8RRRKKRG]
- Ki [6, 7]: > 100 nM
